Experimental data from PubChem BioAssay AID2060892 (Molecular Pharmacology Branch, DTP, NCI, 2025).
pIC50: −log10 of the molar value.

Tested on: HOP-62 complex spheroids with HUVEC/MSC, viability
Assay: Anticancer human tumor HOP-62 cell line growth inhibition [RAS];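 note: spheroids exposed to agents for seven days before readout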;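 for viability, T/C: 100% = DMSO vehicle control viability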
Conditions: for pIC50: curve of first compound; for viability, T/C: stronger effect = lower value
Method in brief: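 Multi-cell-type spheroids: tumor cells plus HUVEC endothelial cells and mesenchymal stem cells. RAS-pathway inhibitors were combined with targeted agents, each dosed in half-log steps down from clinical Cmax, or from 10 microM when Cmax was unknown.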

[1] = second compound 0.000949 µM, first compound 0.0316 µM
[2] = second compound 0.000949 µM, first compound 0.1 µM
[3] = second compound 0.000949 µM, first compound 0.316 µM
[4] = second compound 0.000949 µM, first compound 1 µM
[5] = second compound 0.000949 µM, first compound 3.16 µM
[6] = second compound 0.000949 µM, first compound 10 µM
[7] = second compound 0.003 µM, first compound 0.0316 µM
[8] = second compound 0.003 µM, first compound 0.1 µM
[9] = second compound 0.003 µM, first compound 0.316 µM
[10] = second compound 0.003 µM, first compound 1 µM
[11] = second compound 0.003 µM, first compound 3.16 µM
[12] = second compound 0.003 µM, first compound 10 µM
[13] = second compound 0.00949 µM, first compound 0.0316 µM
[14] = second compound 0.00949 µM, first compound 0.1 µM
[15] = second compound 0.00949 µM, first compound 0.316 µM
[16] = second compound 0.00949 µM, first compound 1 µM
[17] = second compound 0.00949 µM, first compound 3.16 µM
[18] = second compound 0.00949 µM, first compound 10 µM
[19] = second compound 0.03 µM, first compound 0.0316 µM
[20] = second compound 0.03 µM, first compound 0.1 µM
[21] = second compound 0.03 µM, first compound 0.316 µM
[22] = second compound 0.03 µM, first compound 1 µM
[23] = second compound 0.03 µM, first compound 3.16 µM
[24] = second compound 0.03 µM, first compound 10 µM
[25] = second compound 0.0949 µM, first compound 0.0316 µM
[26] = second compound 0.0949 µM, first compound 0.1 µM
[27] = second compound 0.0949 µM, first compound 0.316 µM
[28] = second compound 0.0949 µM, first compound 1 µM
[29] = second compound 0.0949 µM, first compound 3.16 µM
[30] = second compound 0.0949 µM, first compound 10 µM
[31] = second compound 0.3 µM, first compound 0.0316 µM
[32] = second compound 0.3 µM, first compound 0.1 µM
[33] = second compound 0.3 µM, first compound 0.316 µM
[34] = second compound 0.3 µM, first compound 1 µM
[35] = second compound 0.3 µM, first compound 3.16 µM
[36] = second compound 0.3 µM, first compound 10 µM

Compound: CCC(CC)c1cc(NC2CCC(N)C2)n2nccc2n1 (stereo not drawn) + CCn1c(-c2cc(N3CCN(C)CC3)cnc2C(C)OC)c2c3cc(ccc31)-c1csc(n1)CC(NC(=O)C1CC1C)C(=O)N1CCCC(N1)C(=O)OCC(C)(C)C2
- pIC50 (second compound 0.000949 µM): 5.69
- pIC50 (second compound 0.003 µM): 5.72
- pIC50 (second compound 0.00949 µM): 5.81
- pIC50 (second compound 0.03 µM): 5.90
- pIC50 (second compound 0.0949 µM): 5.99
- pIC50 (second compound 0.3 µM): 7.50
- viability, T/C [1]: 116%
- viability, T/C [2]: 125%
- viability, T/C [3]: 94.3%
- viability, T/C [4]: 128%
- viability, T/C [5]: 9.48%
- viability, T/C [6]: 1.8%
- viability, T/C [7]: 91.4%
- viability, T/C [8]: 99.2%
- viability, T/C [9]: 91.5%
- viability, T/C [10]: 121%
- viability, T/C [11]: 8.75%
- viability, T/C [12]: 1.01%
- viability, T/C [13]: 74.9%
- viability, T/C [14]: 63.3%
- viability, T/C [15]: 80%
- viability, T/C [16]: 93.5%
- viability, T/C [17]: 5.73%
- viability, T/C [18]: 0.77%
- viability, T/C [19]: 54%
- viability, T/C [20]: 56.3%
- viability, T/C [21]: 57.9%
- viability, T/C [22]: 81.2%
- viability, T/C [23]: 2.62%
- viability, T/C [24]: 0.93%
- viability, T/C [25]: 40.1%
- viability, T/C [26]: 49.5%
- viability, T/C [27]: 52.8%
- viability, T/C [28]: 61.5%
- viability, T/C [29]: 2.26%
- viability, T/C [30]: 2.34%
- viability, T/C [31]: 33.1%
- viability, T/C [32]: 43.1%
- viability, T/C [33]: 47.9%
- viability, T/C [34]: 50.8%
- viability, T/C [35]: 6.58%
- viability, T/C [36]: 1.42%

Compound: Cc1nc(N2CCC3(CC2)COC(C)C3N)c(CO)nc1Sc1ccnc(N)c1Cl (stereo not drawn) + C#Cc1c(F)ccc2cc(O)cc(-c3ncc4c(N5CC6CCC(C5)N6)nc(OCC56CCCN5CC(F)C6)nc4c3F)c12
- pIC50 (second compound 0.0316 µM): < 5.00
- pIC50 (second compound 0.1 µM): < 5.00
- pIC50 (second compound 0.316 µM): 5.51
- pIC50 (second compound 1 µM): 6.17
- pIC50 (second compound 3.16 µM): 6.95
- pIC50 (second compound 10 µM): > 7.50
- viability, T/C (second compound 0.0316 µM, first compound 0.0316 µM): 105%
- viability, T/C (second compound 0.0316 µM, first compound 0.1 µM): 112%
- viability, T/C (second compound 0.0316 µM, first compound 0.316 µM): 96.6%
- viability, T/C (second compound 0.0316 µM, first compound 1 µM): 82.5%
- viability, T/C (second compound 0.0316 µM, first compound 3.16 µM): 70.5%
- viability, T/C (second compound 0.0316 µM, first compound 10 µM): 64.8%
- viability, T/C (second compound 0.1 µM, first compound 0.0316 µM): 117%
- viability, T/C (second compound 0.1 µM, first compound 0.1 µM): 97.7%
- viability, T/C (second compound 0.1 µM, first compound 0.316 µM): 84.9%
- viability, T/C (second compound 0.1 µM, first compound 1 µM): 79.1%
- viability, T/C (second compound 0.1 µM, first compound 3.16 µM): 67.1%
- viability, T/C (second compound 0.1 µM, first compound 10 µM): 48.5%
- viability, T/C (second compound 0.316 µM, first compound 0.0316 µM): 108%
- viability, T/C (second compound 0.316 µM, first compound 0.1 µM): 97.6%
- viability, T/C (second compound 0.316 µM, first compound 0.316 µM): 82.4%
- viability, T/C (second compound 0.316 µM, first compound 1 µM): 64.8%
- viability, T/C (second compound 0.316 µM, first compound 3.16 µM): 51.1%
- viability, T/C (second compound 0.316 µM, first compound 10 µM): 34.5%
- viability, T/C (second compound 1 µM, first compound 0.0316 µM): 101%
- viability, T/C (second compound 1 µM, first compound 0.1 µM): 79.5%
- viability, T/C (second compound 1 µM, first compound 0.316 µM): 61.3%
- viability, T/C (second compound 1 µM, first compound 1 µM): 46.6%
- viability, T/C (second compound 1 µM, first compound 3.16 µM): 28.1%
- viability, T/C (second compound 1 µM, first compound 10 µM): 25.6%
- viability, T/C (second compound 3.16 µM, first compound 0.0316 µM): 64.3%
- viability, T/C (second compound 3.16 µM, first compound 0.1 µM): 51.3%
- viability, T/C (second compound 3.16 µM, first compound 0.316 µM): 38.1%
- viability, T/C (second compound 3.16 µM, first compound 1 µM): 27.1%
- viability, T/C (second compound 3.16 µM, first compound 3.16 µM): 16.8%
- viability, T/C (second compound 3.16 µM, first compound 10 µM): 11.2%
- viability, T/C (second compound 10 µM, first compound 0.0316 µM): 36.7%
- viability, T/C (second compound 10 µM, first compound 0.1 µM): 32.4%
- viability, T/C (second compound 10 µM, first compound 0.316 µM): 19.5%
- viability, T/C (second compound 10 µM, first compound 1 µM): 10.1%
- viability, T/C (second compound 10 µM, first compound 3.16 µM): 8.04%
- viability, T/C (second compound 10 µM, first compound 10 µM): 8.15%

Compound: CC(=O)OC12COC1CC(O)C1(C)C(=O)C(O)C3=C(C)C(OC(=O)C(O)C(NC(=O)OC(C)(C)C)c4ccccc4)CC(O)(C(OC(=O)c4ccccc4)C21)C3(C)C (stereo not drawn) + CCn1c(-c2cc(N3CCN(C)CC3)cnc2C(C)OC)c2c3cc(ccc31)-c1csc(n1)CC(NC(=O)C1CC1C)C(=O)N1CCCC(N1)C(=O)OCC(C)(C)C2
- pIC50 (second compound 0.000949 µM): > 7.50
- pIC50 (second compound 0.003 µM): > 7.50
- pIC50 (second compound 0.00949 µM): > 7.50
- pIC50 (second compound 0.03 µM): > 7.50
- pIC50 (second compound 0.0949 µM): > 7.50
- pIC50 (second compound 0.3 µM): > 7.50
- viability, T/C [1]: 41.1%
- viability, T/C [2]: 34.9%
- viability, T/C [3]: 28.9%
- viability, T/C [4]: 43.6%
- viability, T/C [5]: 42.7%
- viability, T/C [6]: 42.6%
- viability, T/C [7]: 44.1%
- viability, T/C [8]: 38.5%
- viability, T/C [9]: 33.4%
- viability, T/C [10]: 30.6%
- viability, T/C [11]: 36.6%
- viability, T/C [12]: 35%
- viability, T/C [13]: 42.4%
- viability, T/C [14]: 28.5%
- viability, T/C [15]: 31.5%
- viability, T/C [16]: 37%
- viability, T/C [17]: 35.9%
- viability, T/C [18]: 33.4%
- viability, T/C [19]: 44.1%
- viability, T/C [20]: 35.1%
- viability, T/C [21]: 31.1%
- viability, T/C [22]: 30.8%
- viability, T/C [23]: 30.4%
- viability, T/C [24]: 40.1%
- viability, T/C [25]: 32.3%
- viability, T/C [26]: 33.6%
- viability, T/C [27]: 31.5%
- viability, T/C [28]: 32.9%
- viability, T/C [29]: 33.6%
- viability, T/C [30]: 32.6%
- viability, T/C [31]: 37%
- viability, T/C [32]: 30.9%
- viability, T/C [33]: 39%
- viability, T/C [34]: 31.7%
- viability, T/C [35]: 27.9%
- viability, T/C [36]: 35.6%

Compound: C[C@@H](NC(=O)c1ncnc(N)c1Cl)c1ncc(C(=O)Nc2cc(C(F)(F)F)c(Cl)cn2)s1 + CCn1c(-c2cccnc2C(C)OC)c2c3cc(ccc31)N1CCOC(CC(NC(=O)C(C(C)C)N(C)C(=O)C3(F)CCN(C(=O)C#CC(C)(C)N(C)C)CC3)C(=O)N3CCCC(N3)C(=O)OCC(C)(C)C2)C1
- pIC50 (second compound 0.000949 µM): < 5.00
- pIC50 (second compound 0.003 µM): < 5.00
- pIC50 (second compound 0.00949 µM): < 5.00
- pIC50 (second compound 0.03 µM): < 5.00
- pIC50 (second compound 0.0949 µM): < 5.00
- pIC50 (second compound 0.3 µM): < 5.00
- viability, T/C [1]: 113%
- viability, T/C [2]: 93%
- viability, T/C [3]: 86.2%
- viability, T/C [4]: 109%
- viability, T/C [5]: 108%
- viability, T/C [6]: 65.3%
- viability, T/C [7]: 115%
- viability, T/C [8]: 103%
- viability, T/C [9]: 87.9%
- viability, T/C [10]: 108%
- viability, T/C [11]: 87%
- viability, T/C [12]: 67.7%
- viability, T/C [13]: 95%
- viability, T/C [14]: 94.8%
- viability, T/C [15]: 85.3%
- viability, T/C [16]: 96.2%
- viability, T/C [17]: 77.7%
- viability, T/C [18]: 70.6%
- viability, T/C [19]: 96.8%
- viability, T/C [20]: 89.6%
- viability, T/C [21]: 95.8%
- viability, T/C [22]: 82.4%
- viability, T/C [23]: 64.5%
- viability, T/C [24]: 76%
- viability, T/C [25]: 94.7%
- viability, T/C [26]: 90.8%
- viability, T/C [27]: 81.7%
- viability, T/C [28]: 80.3%
- viability, T/C [29]: 68.1%
- viability, T/C [30]: 75.7%
- viability, T/C [31]: 86.3%
- viability, T/C [32]: 83.9%
- viability, T/C [33]: 77.5%
- viability, T/C [34]: 74.4%
- viability, T/C [35]: 68.9%
- viability, T/C [36]: 71.2%
